Experimental data from patent US20160206579A1 (INSERM (Institut National de la Santé et de la Recherche …, priority 2009, published 2016).

Assays:
optic nerve = details: treated infants; Frisen and Malmgren 2003, Viestenz et al. 2003, Buncic et al. 2004; cited from earlier work
retinal ganglion cells [1] = experiment: Retinal ganglion cell degeneration induced by vigabatrin in young rats, Brn3A-positive RGC count in retinal sections; type: in vivo, Wistar rats
Method: Breeds of Wistar rats Rj Wi IOPS Han were purchased from Janvier (Le Genest-St-Isle, France). Vigabatrin (VGB) dissolved in 0.9% NaCl was administered at 0.6 mg/jour (6 mg/ml, 0.1 ml) to rats by daily intraperitoneal injection for 25 days from age 4 days. These daily doses (50 mg/kg for rats of 12 g) are in-line with those described for the treatment of epilepsy (adult patients: […]; children:50-75 mg/kg; or infants: 100-150 mg/kg) (Aicardi et al., 1996; Chiron et al., 1997; Lux et al., 2004).
Animals were anesthetized by intraperitoneal injection (0.8 to 1.2 ml/kg) of a solution containing ketamine (40 mg/ml) and xylazine (4 mg/ml Rompum). They were then perfused first with heparin 1000 UI/ml in saline solution (0.9% NaCl), then with fixative containing 4% Paraformaldehyde (Merck chemicals ref.: 100496) and 0.2% glutaraldehyde (fluka 25%). Eye cups were isolated and fixed overnight at 4° C. in 4% (wt/vol) paraformaldehyde in phosphate buffered saline (PBS; 0.01M, pH 7.4). The tissue was cryoprotected in successive solutions of PBS containing 10%, 20% and 30% sucrose at 4° C., oriented along the dorso-ventral axis and embedded in OCT (Labonord, Villeneuve d'Ascq, France). Retinal sections (8-10 μm thickness) were permeabilised for five minutes in PBS containing 0.1% Triton X-100 (Sigma, St. Louis, Mo.), rinsed, and incubated in PBS containing 1% bovine serum albumin (Eurobio, Les-Ulis, France), 0.1% Tween 20 (Sigma), and 0.1% sodium azide (Merck, Fontenay-Sous-Bois, France) for two hours at room temperature. The primary Brn3A monoclonal antibody (Chemicon) was added to the solution and incubated for two hours at room temperature. Sections were rinsed and then incubated with the secondary antibody, rabbit anti-mouse IgG conjugated to either Alexa™594 (1:500, Molecular Probes) for two hours. […] Quantifications were achieved on whole vertical sections cut along the dorso-ventral axis and crossing the optic nerve. […]

[2] = test system: RGCs in rat retinal explants; experiment: NMDA-treated retinal explants, Brn-3a-immunopositive RGC density on flat-mounts; details: for RGC density (Brn-3a-immunopositive): mean±s.e.m.
Method: E) Quantification of RGC densities from whole flat-mounted retinal explants using the automated counting platform. […] The scale bar represents 100 μm.
At the end of the incubation, RGCs were immunolabeled with an anti-Brn-3a antibody.

retinal ganglion cells [3] = experiment: P23H rat model of retinitis pigmentosa, Brn3a immunopositive RGC count in retinal sections; type: in vivo, heterozygous P23H rats
Text: Long-Evans rats (8-week old) were purchased from Janvier (Le Genest-St-Isle, France) whereas DBA/2J mice (8-month old) were purchased from Charles River (Larbresle, France). Heterozygous P23H rats and Sprague Dawley rats (n=7) were bred at Charles River (Saint Aubin-les-Elbeuf, France). For taurine supplementation, animals were divided in two groups: a control group and a group receiving taurine in its drinking water. […] Animals drinking water without added taurine were always considered as control animals.
Animals were anesthetized and killed by cerebral dislocation and their eyes were removed and placed into a fixative solution containing 4% paraformaldehyde (Merck chemicals, Darmstadt, Germany) for 24 hours. Eye cups were isolated and cryoprotected in successive solutions of PBS containing 10%, 20% and 30% sucrose at 4° C., oriented along the dorso-ventral axis and embedded in NEG50® (Microm, Francheville, France). Retinal sections were permeabilized for five minutes in PBS containing 0.1% Triton X-100 (Sigma, St. Louis, Mo.), rinsed, and incubated in PBS containing 1% bovine serum albumin (Sigma) and 0.05% Tween 20 (Sigma) for one hour at room temperature. […] Quantifications were achieved on whole vertical sections cut along the dorso-ventral axis and crossing the optic nerve. […]

retinal ganglion cells [4] = experiment: DBA/2J mice, model of pigmentary glaucoma (taurine plasma level, photopic ERG); type: in vivo; details: 12-month old DBA/2J mice, taurine supplementation for 4 months vs pure water
Method: Photopic ERGs were performed on cauterized and control eyes from rats and DBA2/J mice. Animals were anesthetized by an intramuscular injection with a solution containing a mixture of Ketamine (100 mg/Kg) and, Xylazine (10 mg/Kg). Pupils were dilated by a topical application of Mydriaticum, Laboratoires Thea, Clermont-Ferrand, France). ERG were recorded using two gold loop electrodes were placed on the corneal surface of each eye and maintained with 3% Ocry-gel. These recording electrodes were respectively referenced with two steel electrodes, inserted sub-cuteanously at the level of each cheek of animals. A needle electrode, also inserted sub-cuteanously, at the level of the basis of the tail served as ground. Responses to light stimulus were amplified, filtered and digitalized using the “Multiliner vision” program.
Statistical analysis of the results was performed on raw data. An unpaired student t test was used to compare means of 2 groups. For more than 2 groups compared, a one-way ANOVA was used for variance analysis, followed in case of significance by a Bonferroni post-hoc test to compare the means of each group. Differences were considered significant at *P<0.05; **P<0.01; and ***P<0.001.

retinal ganglion cells [5] = experiment: Episcleral vein occlusion rat model of glaucoma (taurine plasma level, IOP, photopic ERG, Brn-3a RGC count); type: in vivo, Long-Evans rats; details: taurine 0.2 M in drinking water, 3 months after occlusion, vs water animals; statistically significant
Method: Long-Evans rats (8-week old) were purchased from Janvier (Le Genest-St-Isle, France) whereas DBA/2J mice (8-month old) were purchased from Charles River (Larbresle, France). Heterozygous P23H rats (line 1) and Sprague Dawley rats (n=7) were bred at Charles River (Saint Aubin-les-Elbeuf, France).
Occlusion of episcleral veins was performed on 8 week-old Long-Evans or Wistar rats as described previously (Mittag et al., 2000). Animals were anesthetized with a mixture Ketamine (100 mg/Kg; Virbac, France) and, Xylazine (10 mg/Kg; Bayer, Leverkusen, Germany), and a local anesthesia (Tetracaine, Laboratoires TVM, Lempdes, France) were administrated on the cornea. At the level of the right eye, three episcleral veins, superonasal, superotemporal and inferotemporal, were emerged by removing the conjunctive tissue. Vein occlusion was realized by cauterization, using Aesculap® bipolar forceps (B. Braun, Melsungen, Germany). […]
IOP was measured from right and left eyes on awake animals using a Tonolab tonometer (Icare, Helsinki, Finland). The tonometer was applied perpendicularly to the cornea and three successive measures were recorded and the average was taken for the final value of IOP.
Photopic ERGs were performed on cauterized and control eyes from rats and DBA2/J mice. […] ERG were recorded using two gold loop electrodes were placed on the corneal surface of each eye and maintained with 3% Ocry-gel. […]

[6] = test system: pure adult rat RGC in culture; experiment: Survival of pure cultured retinal ganglion cells (live-dead viability test, 6 DIV vs 1 DIV); type: cell-based, Long Evans rat; details: 1 mM taurine, 6 days in culture
Text: Primary cultures of pure ganglion cells: Primary cultures of retinal ganglion cells (RGC) were isolated from retinae of adult Long Evans rat (8-week old) with an immunopanning technique, according the protocol previously described in young rats by Barres et al. (1988). Briefly, animals were anesthetized and killed by cerebral dislocation and their eyes removed and placed in a solution of phosphate-buffered saline (PBS) containing 1 g/1 of glucose (PBS-glucose; Invitrogen, Carlsbad, Calif., USA). After one rinse in PBS-glucose, retinae were incubated in the same medium containing 33 UI/ml of papain (Worthington, Lakewood, N.J., USA) and 200 UI/ml of DNAse (Sigma-Aldrich, St-Louis, MO, USA) for 30 min at 37° C. They were then rinsed in PBS-glucose, containing 0.15% ovomucoid (Roche Diagnosis, Basel, Switzerland) and 0.15% bovine serum albumin (BSA; Sigma-Aldrich). […]
RGC viability was assessed with the “lived-dead” test (Invitrogen), which consists in labelling viable cells with calcein AM detected as a green fluorescence, whereas dead cell were labelled with ethidium producing a red fluorescence. […] Only lived RCG were counted from seven fields taken on each coverslip using a microscope (Leica DM 5000B, Solms, Germany) equipped for epifluorescence. Viable RCG were counted at 1 day in vitro (DIV) and 6 DIV to calculate the percentage of cell survival.

[7] = test system: glutamate N-methyl-D-aspartate (NMDA) receptors; details: Seki M et al., 2008; cited from earlier work

C=CC(N)CCC(=O)O (stereo not drawn) [VGB, Vigabatrin]
optic nerve atrophy (optic nerve): induced an optic nerve atrophy | decrease in number of retinal ganglion cells vs control (retinal ganglion cells [1]; young rats treated with VGB, p<0.001): 56% | number of retinal ganglion cells (Brn3A-positive, retinal sections) (retinal ganglion cells [1]; young rats, VGB 0.6 mg/day i.p. for 25 days from age 4 days, control 15.06±0.93, s.e.m., n=10): 6.56±0.32

NCCS(=O)(=O)O [taurine, 2-aminoethanesulfonic acid]
cell loss rescued by co-incubation with NMDA ([2]; 100 μM NMDA plus 1 mM taurine for 4 days): 22% | RGC density (Brn-3a-immunopositive) ([2]; 100 μM NMDA plus 1 mM taurine for 4 days, n=23, p<0.05 vs NMDA): 655.7±44.4 cells/mm2 | average RGC number (brn3a immunopositive, retinal sections) (retinal ganglion cells [3]; taurine 0.1 M in drinking water from 9 to 12 months, n=6, untreated P23H 298±12, Sprague-Dawley control 411±19, mean±SEM): 344±8 | RGC loss prevented (retinal ganglion cells [3]; taurine 0.1 M in drinking water, P<0.01 vs untreated P23H): 40% | decrease in photopic ERG amplitudes (retinal ganglion cells [4]): partially prevented | number of retinal ganglion cells greater than in VGB-treated group without supplementation (retinal ganglion cells [1]; VGB-treated rats with taurine supplementation, p<0.001): 84.9% | decrease in photopic ERG amplitudes on operated eye (retinal ganglion cells [5]): less important than in animals without taurine supplementation | increase in number of surviving cells vs control conditions [6]: 49% | RGC survival at 6 DIV as percentage of that at 1 DIV ([6]; control conditions 18.2±1.8%, mean±SEM): 27.2±3.7%

CN[C@H](CC(=O)O)C(=O)O [NMDA, N-methyl-D-aspartate, reference compound]
RGC density (Brn-3a-immunopositive) ([2]; 100 μM NMDA for 4 days, control 996.0±26.5, n=31): 555.6±31.8 cells/mm2 | reduction in RGC density vs control ([2]; 100 μM NMDA for 4 days, p<0.001): −44%

CC12CC3CC(C)(C1)CC(N)(C3)C2 [memantine]
RGC neuroprotection in models of glaucoma [7]: exert an RGC neuroprotection
